“Also recorded” adds a separate entry of the source.
Assays:
Type in all cases: cell-based, Pseudomonas aeruginosa
PAO1 biofilm [1] = test: Crystal violet based static biofilm inhibition assay, DSHs in LB media (Examples 2 and 4); settings: for Inhibition of PAO1 biofilm formation (surface attached): 160 μM, 24 h, LB media
Method: The ability of DSHs was tested to inhibit Pseudomonas aeruginosa adhesion, biofilm and to disperse pre-formed biofilm. To quantify the amount of PAO1/EGFP attached on the surface of micro titer plates with or without the synthesized DSHs, fluorescence emitted by green fluorescent proteins (GFP) was quantified (see supporting info for details). Crystal violet (CV) based static biofilm assay (see supporting info) was used to screen the anti-biofilm potencies of all synthesized agents. Both surface attached (SA) (FIG. 17) and total (SA+air-liquid interface) biofilm of P. aeruginosa was quantified. […] CV assays were also used to quantify the amount of P. aeruginosa biofilm remaining after dispersion experiments (FIG. 19). Initially, all agents were screen for anti-biofilm activities (both inhibition and dispersion) at 160 μM. […] All reported biofilm inhibition results are an average of 4 identical wells.
The effect that DSHs have on the adhesion of PAO1-EGFP on polystyrene surface (microtiter plate) was also examined. PAO1-EGFP is a P. aeruginosa strain that constitutively expresses green fluorescent protein. In the adhesion assays, PAO1-EGFP was grown in microtiter plate for 24-hours in LB-media with (160 μM) or without DSHs. After 24-hours, the fluorescent signal obtained from surface adhered PAO1-EGFP was measured. Percent reduction in fluorescence was calculated by comparing fluorescent signal from PAO1-EGFP grown in LB-media with the signal from wells that had DSHs (FIG. 29A). To study the effect of DSHs on biofilm formation, Pseudomonas aeruginosa (PAO1) was grown in LB-media with (160 μM) or without DSHs at 37° C. under static conditions within wells of microtiter plates. After 24 hours, the surface attached biofilms adhering to the bottom of the wells were stained with crystal-violet dye and the biofilm was quantified by measuring absorbance at 600 nm (OD600). […] Similar to inhibition, the surface attached biofilm after dispersion with DSHs was quantified with crystal-violet staining and absorbance measurement at 600 nm, except that for dispersion, biofilm was first grown for 1 day in just LB-media without any DSHs after which DSHs were added and plates were incubated for additional 24 hours followed by quantification (FIG. 29B).
Crystal violet (CV) based-biofilm inhibition assay. Inhibitory effect of all synthesized disaccharide hydrocarbons on biofilm formation of Pseudomonas aeruginosa (wild type PAO1) was determined by static biofilm inhibition assay using crystal violet staining. Overnight culture of PAO1 were sub cultured in LB media to OD600 of 0.01 and further the OD600 was allowed to reach ˜0.1. The bacterial sub-culture (200 μL) was then added into the wells of a microtiter plate. Predetermined concentrations of DSHs were added to respective wells containing sub culture by pipetting out fixed volume of sterile aqueous stock solutions (except DβL (7), SPOT, (15) and 2-ODαC (17), which were introduced as stocks prepared in H2O […] and EtOH (90:10) solutions). The microtiter plates were then wrapped in GLAD Press n′ Seal® (saran wrap) and further incubated under stationary conditions for 24 h at 37° C. After 24 h incubation, the culture media was discarded by pipetting carefully (without disrupting biofilm), the plate was then washed once with sterile water (200 μL) and allowed to dry at 37° C. for ˜30 mins. Microtiter plates were then stained with 0.1% aqueous solution of crystal violet (CV) (200 μL) at rt for ˜30 mins. Following this, the CV stain was removed and plate was again washed with sterile water (200 μL). Resultant CV stain in the well was then solubilized by adding 100 μL of 30% AcOH solution (in water) and mixing gently by pipetting.

1-day old PAO1 biofilm = test: Crystal violet assay for dispersion of 1-day old biofilm, DSHs (Examples 2 and 4); settings: 160 μM, another 24 h
Method: The effect that DSHs have on the adhesion of PAO1-EGFP on polystyrene surface (microtiter plate) was also examined. PAO1-EGFP is a P. aeruginosa strain that constitutively expresses green fluorescent protein. In the adhesion assays, PAO1-EGFP was grown in microtiter plate for 24-hours in LB-media with (160 μM) or without DSHs. After 24-hours, the fluorescent signal obtained from surface adhered PAO1-EGFP was measured. Percent reduction in fluorescence was calculated by comparing fluorescent signal from PAO1-EGFP grown in LB-media with the signal from wells that had DSHs (FIG. 29A). To study the effect of DSHs on biofilm formation, Pseudomonas aeruginosa (PAO1) was grown in LB-media with (160 μM) or without DSHs at 37° C. under static conditions within wells of microtiter plates. After 24 hours, the surface attached biofilms adhering to the bottom of the wells were stained with crystal-violet dye and the biofilm was quantified by measuring absorbance at 600 nm (OD600). The percent inhibition was calculated by comparing biofilm content of wells with no added agents (control) with the biofilm content from wells that had 160 μM of DSHs (FIG. 29A). Similar to inhibition, the surface attached biofilm after dispersion with DSHs was quantified with crystal-violet staining and absorbance measurement at 600 nm, except that for dispersion, biofilm was first grown for 1 day in just LB-media without any DSHs after which DSHs were added and plates were incubated for additional 24 hours followed by quantification (FIG. 29B).
Crystal violet based assay for quantifying dispersion of 1-day old PAO1 biofilms were Plate for set up similar to inhibition assay with a slight modification. Wells of the micro-titer plate was inoculated with (200 μL) bacterial subculture (PAO1 subculture OD600 ˜0.1). The plates were incubated at 37° C. for 24 hours to allow biofilm formation. After 24 hours, bacterial culture was gently pipetted out and appropriate volume of DSH were added followed by addition of fresh LB medium (200 μL). The microtiter plate was incubated for an additional 24 hours at 37° C., following which, similar to work up of inhibition assay, culture was removed, wells were washed and CV-dye was introduced, followed by washing and destaining with 30% AcOH solution in water and quantification at 600 nm. Here again, only the surface attached biofilm dispersed was reported by comparing wells with DSHs with wells with no agent.
Dose dependence assays for biofilm inhibition and dispersion. […] Both for biofilm inhibition and dispersion, predetermined volumes of DSH stocks were added to the assigned wells to span a concentration range between 0.5 μM-170 μM. Percent biofilm inhibition of dispersion was calculated by comparing to wells with no agent. The percent biofilm inhibition or dispersion was plotted versus concentration of DSHs. The linear values were logarithmically curve fitted using equation […]. The half maximal inhibitory concentration for both biofilm inhibition and dispersion (IC50 and DC50) were thus obtained.

[2] = test system: nonswarming P. aeruginosa mutant rhlA; test: Swarming motility of nonswarming rhlA mutant on soft agar (reactivation / agonist assay); settings: 85 μM in soft agar (0.5%), 24 h
Text: Using nonswarming mutant to screen for swarming agonists and wild type P. aeruginosa for swarming antagonists. The transposon mutant, rhlA (genotype, rhlA-E08:ISphoA/hah)39 of P. aeruginosa (PAO1), that impairs the gene that is responsible for synthesizing rhamnolipids is completely incapable of a swarming motility. […] Based on this inference, a rhlA mutant was used in a swarming experiment to screen the saccharide-hydrocarbons for agonists that can reactivate the swarming motility of rhlA.
(§1) Swarm agar plates were based on M8 medium supplemented with 0.2% glucose, 0.5% casamino acid, 1 mM MgSO4 and […]. 17 For each set of experiment all the swarm plates were poured from same batch of agar and allowed to dry for 1 h before inoculation of bacteria. Bacterial culture (3 μl) (wild type PAO1 or rhlA mutant) with OD600 between […] was inoculated on the solidified agar plates. Swarm agar plates were incubated at 37° C. for 12 h and then incubated for additional 12 h at room temp. Chronological images of swarm plates were taken using a camera. To measure swarming area, sizes of the petridish in all swarming images were adjusted to a pre-assigned diameter and images were printed on copying paper (Xerox-business 4200). Weight of a 1 cm^2 copy paper square was roughly ˜8.0 mg. swarming images on the copy paper were cut and weighed, the swarm area was calculated by dividing the weight of image by weight of 1 cm^2 square (8 mg).
(§2) Swarm agar plates were made using M8 medium supplemented with 0.2% glucose, 0.5% casamino acid, 1 mM MgSO4 and solidified with 0.5% Bacto agar. 24 Bacterial culture with OD600 between 0.4 to 0.6 was inoculated as 3 μl aliquots. Swarm agar plates were incubated at 37° C. for 12 h and then incubated for additional 12 h at rt. For each set of experiment all the swarm plates were poured from same batch of agar and allowed to dry for 1 h before inoculation of bacteria.

wild type PAO1 = test: Swarming motility of wild type PAO1 on soft agar (antagonist assay)
Method: In contrast, the wild type P. aeruginosa produces the rhamnolipids and is capable of swarming on soft agar gel (˜0.5% agar). […] We note that saccharide hydrocarbons may also promote the swarming motility, but such promotions are less unambiguous than the inhibition for wild type PAO1. Such promotion will be unambiguous in the agonist assay using the nonswarming mutant rhlA.
as §1, §2

PAO1 biofilm [3] = test: Crystal violet dye based biofilm inhibition assay, maltose derivatives (Example 1); settings: 110 μM, 24 h, CV assay
Method: A crystal violet (CV) assay was used to measure the amount of PAO1 biofilm formed after 24 h of bacterial inoculation. The fluorescence of green fluorescent proteins (GFP) expressed by PAO1-GFP was measured to directly quantify bacterial adhesion on polystyrene black 96 well plates with and without maltose derivatives after 2 h of bacterial inoculation. To evaluate the potential of maltose derivatives as both anti-biofilm and anti-adhesion agents, they were compared to a brominated furanone (BF8) known to inhibit biofilm formation, and two generic surfactants, sodium dodecyl sulfate (SDS) and tetra (ethylene glycol) monododecyl ether (C12EG4OH). […] P. aeruginosa strain PAO1-EGFP that constitutively producing green fluorescent protein was allowed to form biofilm on sterile steel coupons.
Inhibitory effect of all the maltose hydrocarbons on P. aeruginosa biofilm formation was determined by crystal violet dye based biofilm inhibition assays. Overnight culture of wild type P. aeruginosa (PAO1) was sub cultured to an OD600 of 0.01 into the 95:5 M9+:Lb medium. 200 μL of the sub culture was aliquoted into the wells of 96 well polystyrene microtiter plate when it reached the OD600 of 0.1. Predetermined concentrations of the test compounds were then added to the respective wells containing sub culture. Sample plates were wrapped in GLAD Press n′ Seal® followed by incubation under stationary conditions for 24 h at 37° C. After incubation the media was discarded and the plates were washed with water and dried for 1 h at 37° C. The sample plates were stained with 200 μL of 0.1% aqueous solution of crystal violet (CV) and followed by incubation at ambient temperature for 20 min. The CV stain was then discarded and the plates were washed with water. The remaining biofilm adhered stain was re-solubilized with 200 μL of 30% acetic acid. After the stain was dissolved (15 minutes), 100 μL of the solubilized CV was transferred from each well into the corresponding wells of a new polystyrene microtiter dish. Biofilm inhibition was quantified by measuring the OD600 of each well in which a negative control lane wherein no biofilm was formed served as a background and was subtracted out. The percent inhibition was calculated by the comparison of the OD600 for biofilm grown in the absence of compound (control) versus biofilm grown in the presence of compound under identical conditions.
Predetermined amounts maltose derivatives stock solution was added to the 200 μL bacterial culture in 96 well plate so that the final concentration of the agent reaches the desired values of 1, 5, 10, 20, 40, 85, 113, 140 μM. Biofilm inhibition and dispersion assay was carried as described previously.

Compound | Inhibition of PAO1 biofilm formation (surface attached) (PAO1 biofilm [1]) | Inhibition of PAO1 biofilm formation (surface attached) (PAO1 biofilm [1]; listed as 17: 2-ODαC, 160 µM) | Dispersion of 24-h old PAO1 biofilm (1-day old PAO1 biofilm) | Swarming motility of rhlA mutant [2] | Inhibition of PAO1 biofilm formation (surface attached) (PAO1 biofilm [1]; listed as 16: 2-ODβC, 160 µM) | Anti-biofilm activity (biofilm inhibition) (PAO1 biofilm [1]; concentration not given) | Swarming motility of wild type PAO1 (wild type PAO1; 85 μM in soft agar, 24 h) | Effect on PAO1 swarming (wild type PAO1; concentration not given) | Inhibition of PAO1 biofilm (PAO1 biofilm [3]) [%]
CCCCCCCCCCC(CCCCCCCC)CO[C@H]1O[C@H](CO)[C@@H](O[C@@H]2O[C@H](CO)[C@@H](O)[C@H](O)[C@H]2O)[C@H](O)[C@H]1O (stereo partly drawn) [2-ODαC (17), 2-octyl-dodecyl-α-cellobioside] | not active for biofilm inhibition or dispersion | ineffective at biofilm inhibition | not active for biofilm inhibition or dispersion |  |  |  |  |  | 
CCCCCCCCCCC(CCCCCCCC)CO[C@@H]1O[C@H](CO)[C@@H](O[C@@H]2O[C@H](CO)[C@@H](O)[C@H](O)[C@H]2O)[C@H](O)[C@H]1O (stereo partly drawn) [2-ODβC (16), 2-octyl-dodecyl-β-cellobioside] |  |  | not active for biofilm inhibition or dispersion | no apparent effect on rhlA | ineffective at biofilm inhibition | not effective at inhibiting the biofilm formation | inhibited the swarming motility of wild type PAO1 | did exhibit inhibition of PAO1 swarming; also recorded: inhibits the swarming activities of PAO1; also recorded: PAO1 swarming inhibitors | 
CCCCCCCCCCC(CO[C@@H]1O[C@H](CO)[C@@H](O[C@H]2O[C@H](CO)[C@@H](O)[C@H](O)[C@H]2O)[C@H](O)[C@H]1O)Cc1ccc(C(C)(C)C)cc1 (stereo partly drawn) [4-tBuBDβM, 4-tertiary butyl benzyl dodecyl β-maltoside] |  |  |  | did not exhibit any significant activation of swarming |  |  |  |  | 74
benzyl decyl β-maltoside [BDeβM] |  |  |  | swarming motility with without well-defined tendrils |  |  |  |  | 50

Source: patent US11357786B2, “Synthetic disugar hydrocarbons as natural analogs to control microbial behaviors” (Syracuse University, priority 2014, dated 2022)
